{"source": "patent US8974837B2", "about": "“Pharmaceutical composition comprising an extract of Pseudolysimachion longifolium and the catalpol derivatives isolated therefrom having antiinflammatory, antiallergic and antiasthmatic activity” (Korea Research Institute of Bioscience and Biotechnology, priority 2005, dated 2015)", "key": {"Promyelotic HL-60 cells": {"test_system": "Promyelotic HL-60 cells", "assay": "MTT assay, cytotoxic effect on HL-60 cells", "format": "cell-based", "procedure": "(§1) To investigate the cytotoxic effect of inventive extract of P. longifolium extract and the compound isolated therefrom was determined by (3-[4,5-dimethylthiazol-2-yl]-2,5-diphenyl tetrazolium bromide(MTT) assay method (Wang Z et al., Biol., Pharm. Bull., 24, pp 159-162, 2001).\n(§2) Promyelotic HL-60 cells (HL-18103, 5×10^5 cells/ml) were seeded in 96-well plates under NGF-free condition. After 24 hours incubation, the cells were treated with the mixture of samples dissolved in 10 μl of DMSO and 10 μl of MTT solution (5 mg/ml), and incubated for 4 hours under similar condition. 4 hours later, MTT was removed and 100 μl of DMSO was dropped into each well to dissolve crystals. At 570 nm, UV absorbance was measured by microplate reader (BIO-RAD, U.S.A.) to calculate the cell viability."}, "OVA-challenged mice [1]": {"test_system": "OVA-challenged mice", "assay": "OVA-induced eosinophilia: inflammatory cell counts in bronchoalveolar lavage fluid", "format": "in vivo, BALB/c mice", "details": "from OVA-treated control group; 48 hours after last challenge", "text": "(§3) Specific pathogen-free female BALB/c mice aged 8-10 weeks, which were routinely screened serologically for relevant respiratory pathogens, were purchased from ORIENT Co Ltd (Seoul, Korea).\n(§4) Following treatment: (1) sham-sensitization plus challenge with phosphate-buffered saline (PBS; ipNeb); (2) sensitization plus challenge with OVA (ovalbumin: Sigma A5503; Sigma, St. Louis, Mo.)(ipNeb); (3) sensitization with OVA (i.p.) plus challenge with OVA (Neb) and samples (extract of P. longifolium or montelukast) was performed to Group of mice (n=5). Briefly, mice were sensitized by intraperitoneal injection of 20 μg OVA, which was emulsified with 2 mg aluminum hydroxide in 100 μl of PBS buffer (pH 7.4) on days 0 and 14. The mice were challenged through the airways with OVA (1% in PBS) for 20 min using an ultrasonic nubuilizer (NE-U12; Omron Corp., Tokyo, Japan) on days 28, 29 and 30 after the initial sensitization. The mice were sacrificed 48 h after the last challenge (day 32) to determine the suppression effect of extract of P. longifolium or verproside on the airways of allergic asthma.\n(§5) The extract of P. longifolium, and verproside were suspended in PBS and administered intragastrically using a 25-gauge stainless steel blunt feeding needle 1 h before each challenge, and control animals were exposed only on the PBS solution. As a positive control, montelukast (MSD Korea Ltd., Seoul, Korea) was treated with the same procedure in the experiment.\nThe mice were sacrificed with an overdose of pentobarbital (Sigma P3761) […] after the last challenge, and a tracheotomy was performed. After ice-cold 0.5 ml of PBS was instilled into the lungs, bronchoalveolar lavage fluid (BALF) was obtained by aspiration three times (total 1.5 ml) via tracheal cannulation (Yamazaki T, J. Jap. Bot., 43, pp 117-24, 1968)\nThe total inflammatory cell number was assessed by counting cells in at least five squares of a hemocytometer after excluding dead cells confirmed by staining with trypan blue (Daigle I. et al., Swiss Med Wkly, 131, pp 231-7, 2001). 100 μl of BALF was loaded onto a slide and centrifuged (200×g, 4° C., 10 min) to fix the cells onto the slide using a cytospine machine (Hanil Science Industrial, Korea). The cells were stained by Diff-Quick® Stain reagents (Sysmex, Cat No. 38721, Switzerland) according to the manufacturer's instructions. Statistical significance was determined by Student's two-tailed t-test for independent means and the critical level for significance was set at P<0.05.\nTo evaluate the suppression of verproside on the eosinophilia in OVA-challenged mice, the recruited cells in BALF were counted 48 hours after the last challenge. OVA caused a marked influx of leucocytes into the BALF from a PBS control group."}, "OVA-challenged mice [2]": {"test_system": "OVA-challenged mice", "assay": "Lung histology (H&E and PAS staining) in OVA-challenged mice", "format": "in vivo, BALB/c mice", "details": "for mucus area score: PAS, five-point system 0-4, OVA-treated mice 3.60±0.64, FIG. 5", "procedure": "as §4, §5\nTo estimate the suppressive effect of verproside on the eosinophilia, lung tissues were collected 48 hours after the last challenge. The lung tissue was fixed for 24 h in 10% neutral-buffered formalin. After being embedded in paraffin, it is sliced into 4-μm thickness of sections and the tissue was stained with H&E solution (hematoxylin; Sigma MHS-16 and eosin, Sigma HT110-I-32).\nIn Periodic acid Schiff (PAS) staining, mucus overproduction in the OVA-treated mice was clearly observed as a violet color in the bronchial airways compared with the normal mice. […] Goblet-cell hyperplasia in the airway epithelium was quantified based on a five-point system: 0, no goblet cells; 1, <25% of the epithelium; 2, 25-50% of the epithelium; 3, 50-75% of the epithelium; 4, >75% of the epithelium. For each mouse, five airway sections that were randomly distributed throughout the left lung were analysed, and their average scores were calculated. Quantitative analysis of mucus production was performed using an image analyzer (Leica Microsystem Imaging solution Ltd.; Cambridge, UK)."}, "[3]": {"test_system": "OVA-sensitized/challenged mouse model", "assay": "Airway hyperresponsiveness (AHR), Penh values in OVA-challenged mice", "format": "in vivo, BALB/c mice", "details": "24 hours after final OVA challenge; FIG. 1", "procedure": "The AHR was evaluated by calculation Penh values (enhanced pause) 24 hours after the final OVA challenge.\nas §3\nas §4, with “asthma. […]” for “asthma.”"}, "IL-13": {"test_system": "IL-13", "assay": "Measurement of IL-13 in BALF by ELISA in OVA-induced asthmatic mice", "format": "in vivo, mouse", "details": "from OVA-challenged group; 48 hours after last challenge", "procedure": "(§6) Following treatment: (1) sham-sensitization plus challenge with phosphate-buffered saline (PBS; ipNeb); (2) sensitization plus challenge with OVA (ovalbumin: Sigma A5503; Sigma, St. Louis, Mo.)(ipNeb); (3) sensitization with OVA (i.p.) plus challenge with OVA (Neb) and samples (extract of P. longifolium or montelukast) was performed to Group of mice (n=5). Briefly, mice were sensitized by intraperitoneal injection of 20 μg OVA, which was emulsified with 2 mg aluminum hydroxide in 100 μl of PBS buffer (pH 7.4) on days 0 and 14. […]\n(§7) Complementary capture and detection antibody pairs for mouse IgE antibodies were purchased from PharMingen (San Diego, Calif.), and the IgE enzyme-linked immunosorbent assay (ELISA) was performed according to the manufacturer's directions. […] IgE levels in each sample were measured from optical density readings at 450 nm, and IgE concentrations were calculated from a standard curve that was generated using recombinant IgE (5-2,000 ng/ml). The amount of IL-4 and IL-13 contained in BALF was measured with a specific mouse ELISA kit (R&D Systems; Minneapolis, Minn.). […]\n(§8) To determine the effect of verproside on cytokine release in the OVA-induced asthmatic mice, the levels of cytokines (IL-4 and IL-13) in BALF were measured using ELISA 48 hours after the last challenge. […]"}, "IL-4": {"test_system": "IL-4", "assay": "Measurement of IL-4 in BALF by ELISA in OVA-induced asthmatic mice", "format": "in vivo, mouse", "details": "from OVA-challenged group; 48 hours after last challenge", "procedure": "as §6, §7, §8"}, "IgE": {"test_system": "IgE", "assay": "Measurement of IgE by ELISA in plasma and BALF of OVA-challenged mice", "format": "in vivo, mouse", "details": "for IgE level in BALF: OVA-treated mice 59.4±38.4; for IgE level in plasma: OVA-treated mice 85.6±17.3", "procedure": "as §4, §5\nComplementary capture and detection antibody pairs for mouse IgE antibodies were purchased from PharMingen (San Diego, Calif.), and the IgE enzyme-linked immunosorbent assay (ELISA) was performed according to the manufacturer's directions. Duplicate samples in plasma were diluted to 1:100. IgE levels in each sample were measured from optical density readings at 450 nm, and IgE concentrations were calculated from a standard curve that was generated using recombinant IgE (5-2,000 ng/ml). The amount of IL-4 and IL-13 contained in BALF was measured with a specific mouse ELISA kit (R&D Systems; Minneapolis, Minn.). The detection limit of the assays was 250 pg/ml."}, "[4]": {"assay": "MTT assay, cytotoxic effect on HL-60 cells", "format": "cell-based", "details": "human, HL-60 promyelocytic cells, read-out: Cell viability (%)", "procedure": "as §1, §2"}}, "data": [{"smiles": "O=C(O[C@H]1[C@@H]2C=CO[C@@H](O[C@@H]3O[C@H](CO)[C@@H](O)[C@H](O)[C@H]3O)[C@@H]2[C@@]2(CO)O[C@@H]12)c1ccc(O)c(O)c1", "note": "[verproside, 6-O-3,4-Dihydroxybenzoyl catalpol]", "values": [{"measurement": "Cell viability (%)", "setting": "Promyelotic HL-60 cells; 50 μM", "result": 105, "unit": "%"}, {"measurement": "Cell viability (%)", "setting": "Promyelotic HL-60 cells; 100 μM", "result": 102, "unit": "%"}, {"measurement": "decrease in eosinophils in BALF", "setting": "OVA-challenged mice [1]", "result": "86.2±7.2", "unit": "%"}, {"measurement": "decrease in total cells in BALF", "setting": "OVA-challenged mice [1]", "result": "79.3±13.1", "unit": "%"}, {"measurement": "mucus area score", "setting": "OVA-challenged mice [2]", "result": "1.43±0.23"}, {"measurement": "infiltration of eosinophil-rich leukocytes in lung tissue (H&E)", "setting": "OVA-challenged mice [2]; compared with OVA-treated mice, 48 hours after last challenge, FIG. 3", "result": "significantly attenuated"}, {"measurement": "mucus in bronchial airways (PAS staining)", "setting": "OVA-challenged mice [2]; compared with OVA-treated mice, FIG. 4", "result": "markedly diminished"}, {"measurement": "Penh value compared with OVA-treated group (in words)", "setting": "[3]", "result": "significantly reduced"}, {"measurement": "decrease in IL-13 in BALF", "setting": "IL-13", "result": "74.9±15.5", "unit": "%"}, {"measurement": "decrease in IL-4 in BALF", "setting": "IL-4", "result": "64.5±27.7", "unit": "%"}, {"measurement": "IgE level in BALF", "setting": "IgE", "result": "21.5 ± 11.2", "unit": "ng/mL"}, {"measurement": "IgE level in plasma", "setting": "IgE", "result": "40.2 ± 13.2", "unit": "µg/mL"}]}, {"smiles": "COc1ccc(C(=O)O[C@H]2[C@@H]3C=CO[C@@H](O[C@@H]4O[C@H](CO)[C@@H](O)[C@H](O)[C@H]4O)[C@@H]3[C@@]3(CO)O[C@@H]23)cc1OC", "note": "[6-O-veratroyl catalpol, 6-O-(3,4-dimethoxybenzoyl) catalpol]", "values": [{"measurement": "Cell viability (%)", "setting": "Promyelotic HL-60 cells; 50 μM", "result": 116, "unit": "%"}, {"measurement": "Cell viability (%)", "setting": "Promyelotic HL-60 cells; 100 μM", "result": 114, "unit": "%"}]}, {"smiles": "CC(C)(O)c1ccccc1CC[C@@H](SCC1(CC(=O)O)CC1)c1cccc(/C=C/c2ccc3ccc(Cl)cc3n2)c1", "note": "[montelukast, reference compound]", "values": [{"measurement": "decrease in eosinophils in BALF", "setting": "OVA-challenged mice [1]", "result": "80.7±11.1", "unit": "%"}, {"measurement": "decrease in total cells in BALF", "setting": "OVA-challenged mice [1]", "result": "78.3±12.1", "unit": "%"}, {"measurement": "mucus area score", "setting": "OVA-challenged mice [2]", "result": "1.53±0.24"}, {"measurement": "decrease in IL-13 in BALF", "setting": "IL-13", "result": "84.5±8.2", "unit": "%"}, {"measurement": "decrease in IL-4 in BALF", "setting": "IL-4", "result": "69.5±22.0", "unit": "%"}, {"measurement": "IgE level in BALF", "setting": "IgE", "result": "3.8 ± 0.7", "unit": "ng/mL"}, {"measurement": "IgE level in plasma", "setting": "IgE", "result": "31.4 ± 14.2", "unit": "µg/mL"}]}, {"smiles": "COc1ccc(/C=C/C(=O)O[C@H]2[C@@H]3C=CO[C@@H](O[C@@H]4O[C@H](CO)[C@@H](O)[C@H](O)[C@H]4O)[C@@H]3[C@@]3(CO)O[C@@H]23)cc1O", "note": "[Minecoside, 6-O-3-hydroxy-4-methozycinnamoyl catalpol]", "values": [{"measurement": "viability at 4 h, 50 µM", "setting": "[4]; 50 μM", "result": 98, "unit": "%"}, {"measurement": "viability at 4 h, 100 µM", "setting": "[4]; 100 μM", "result": 95, "unit": "%"}]}]}
